Tests used:
[1] = biological target: T1, eukaryotic initiation factor 2 subunit alpha (eIF2α) (Homo sapiens, UniProt P05198); assay: pull-down with streptavidin beads, western blot; format: biochemical; conditions: KB-3-1 cell lysate; native protein; 4 °C 1 h with compound; labelled compound; indirect binding evidence
T1 construct: gene EIF2S1; native endogenous protein in KB-3-1 cell lysate (M-PER), 36 kDa band; alpha subunit of the heterotrimeric eIF2 complex; detected by western blot

PC-3 = assay: cells; parameters: species or system transformed mammalian cell lines; MTT assay (formazan absorbance at 595 nm), anti-proliferative activity on transformed cell lines; conditions: Homo sapiens, PC-3; read-out: Gephyronic acid IC50
A-549 = assay: cells; parameters: species or system transformed mammalian cell lines; MTT assay (formazan absorbance at 595 nm), anti-proliferative activity on transformed cell lines; conditions: Homo sapiens, A549; read-out: Gephyronic acid IC50
L-929 = assay: cells; parameters: species or system transformed mammalian cell lines; MTT assay (formazan absorbance at 595 nm), anti-proliferative activity on transformed cell lines; conditions: Mus musculus, L929; read-out: Gephyronic acid IC50
KB-3-1 = assay: cells; parameters: species or system transformed mammalian cell lines; MTT assay (formazan absorbance at 595 nm), anti-proliferative activity on transformed cell lines; conditions: Homo sapiens, KB 3-1; read-out: Gephyronic acid IC50
MCF-7 = assay: cells; parameters: species or system transformed mammalian cell lines; MTT assay (formazan absorbance at 595 nm), anti-proliferative activity on transformed cell lines; conditions: Homo sapiens, MCF7; read-out: Gephyronic acid IC50
[2] = biological target: T1, eukaryotic initiation factor 2 subunit alpha (eIF2α); assay: DARTS (pronase protection, western blot); format: biochemical; conditions: KB-3-1 cell lysate; native protein; 2 h at room temperature with compound, pronase 30 min at 37 °C; indirect binding evidence

T1 sequence (P05198 whole entry): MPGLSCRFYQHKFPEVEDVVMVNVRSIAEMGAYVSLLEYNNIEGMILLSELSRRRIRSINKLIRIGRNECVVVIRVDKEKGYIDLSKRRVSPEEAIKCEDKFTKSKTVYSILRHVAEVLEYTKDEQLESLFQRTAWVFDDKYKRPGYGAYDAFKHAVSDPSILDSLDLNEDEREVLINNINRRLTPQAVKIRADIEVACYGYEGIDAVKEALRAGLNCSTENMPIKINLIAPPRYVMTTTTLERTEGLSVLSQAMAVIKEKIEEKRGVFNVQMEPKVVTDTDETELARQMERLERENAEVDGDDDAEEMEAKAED

| SMILES | pull-down with streptavidin beads, western blot [1] | IC50 (PC-3) [nM] | IC50 (A-549) [nM] | IC50 (L-929) [nM] | IC50 (KB-3-1) [nM] | IC50 (MCF-7) [nM] | DARTS (pronase protection, western blot) [2] |
| --- | --- | --- | --- | --- | --- | --- | --- |
| COC(=O)C[C@H](OC(=O)CCCC[C@@H]1SC[C@@H]2NC(=O)N[C@@H]21)[C@@H](C)[C@H](OC)C(C)(C)C(=O)[C@@H](C)C[C@H](C)[C@H](O)[C@]1(C)O[C@@H]1[C@@H](C)C=C(C)C [4b, biotinylated GA methyl ester 4b] | eIF2α was clearly present in preparations with biotinylated GA ester |  |  |  |  |  |  |
| CO[C@@H]([C@H](C)[C@@H](O)CC(=O)O)C(C)(C)C(=O)[C@@H](C)C[C@H](C)[C@H](O)[C@@]1(C)O[C@@H]1[C@@H](C)C=C(C)C [compound 1, gephyronic acid] |  | 6 | 8 | 100 | 14 | 14 | GA binding protected the initiation factor eIF2α in a dose dependent manner. |

Source: article PMC6067752, “Investigations on the mode of action of gephyronic acid, an inhibitor of eukaryotic protein translation from myxobacteria” (PLoS ONE, 2018)
